Reference: PubChem BioAssay AID2060502 (Molecular Pharmacology Branch, DTP, NCI, 2025)
One block for each compound: values may come before it.

Test system: 885724-159-R-J1-PDC complex spheroid viability
Assay: Anticancer human tumor 885724-159-R-J1-PDC patient-derived pancreatic adenocarcinoma cell line growth inhibition [GQUAD]
Details: for IC50: curve of first compound; for viability, T/C: stronger effect = lower value
Procedure, shortened: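 Tumor cells were grown as complex spheroids with HUVEC endothelial cells and mesenchymal stem cells as stroma. G-quadruplex stabilizers were combined with targeted agents over half-log dilutions from near the clinical Cmax, or from 10 microM.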

[1] = second compound 0.0316 µM, first compound 0.0316 µM
[2] = second compound 0.0316 µM, first compound 0.1 µM
[3] = second compound 0.0316 µM, first compound 0.316 µM
[4] = second compound 0.0316 µM, first compound 1 µM
[5] = second compound 0.0316 µM, first compound 3.16 µM
[6] = second compound 0.0316 µM, first compound 10 µM
[7] = second compound 0.1 µM, first compound 0.0316 µM
[8] = second compound 0.1 µM, first compound 0.1 µM
[9] = second compound 0.1 µM, first compound 0.316 µM
[10] = second compound 0.1 µM, first compound 1 µM
[11] = second compound 0.1 µM, first compound 3.16 µM
[12] = second compound 0.1 µM, first compound 10 µM
[13] = second compound 0.316 µM, first compound 0.0316 µM
[14] = second compound 0.316 µM, first compound 0.1 µM
[15] = second compound 0.316 µM, first compound 0.316 µM
[16] = second compound 0.316 µM, first compound 1 µM
[17] = second compound 0.316 µM, first compound 3.16 µM
[18] = second compound 0.316 µM, first compound 10 µM
[19] = second compound 1 µM, first compound 0.0316 µM
[20] = second compound 1 µM, first compound 0.1 µM
[21] = second compound 1 µM, first compound 0.316 µM
[22] = second compound 1 µM, first compound 1 µM
[23] = second compound 1 µM, first compound 3.16 µM
[24] = second compound 1 µM, first compound 10 µM
[25] = second compound 3.16 µM, first compound 0.0316 µM
[26] = second compound 3.16 µM, first compound 0.1 µM
[27] = second compound 3.16 µM, first compound 0.316 µM
[28] = second compound 3.16 µM, first compound 1 µM
[29] = second compound 3.16 µM, first compound 3.16 µM
[30] = second compound 3.16 µM, first compound 10 µM
[31] = second compound 10 µM, first compound 0.0316 µM
[32] = second compound 10 µM, first compound 0.1 µM
[33] = second compound 10 µM, first compound 0.316 µM
[34] = second compound 10 µM, first compound 1 µM
[35] = second compound 10 µM, first compound 3.16 µM
[36] = second compound 10 µM, first compound 10 µM
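Note: spheroids exposed to agents for seven days before readout.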
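Throughout, for viability, T/C: percent of vehicle control viability where 100% = DMSO wells.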

SMILES: Cc1cccc(N(C)C(=O)C2C(O)CCN2c2nc(C)cc(C(F)(F)F)c2C#N)c1 (stereo unspecified) + CN(C)c1ccc(Nc2c3ccc(NC(=O)CCN4CCCC4)cc3nc3cc(NC(=O)CCN4CCCC4)ccc23)cc1
- IC50 (second compound 0.0316 µM): > 10 µM
- IC50 (second compound 0.1 µM): > 10 µM
- IC50 (second compound 0.316 µM): > 10 µM
- IC50 (second compound 1 µM): > 10 µM
- IC50 (second compound 3.16 µM): > 10 µM
- IC50 (second compound 10 µM): > 10 µM
- viability, T/C [1]: 95.6%
- viability, T/C [2]: 98%
- viability, T/C [3]: 105%
- viability, T/C [4]: 92.7%
- viability, T/C [5]: 108%
- viability, T/C [6]: 97.7%
- viability, T/C [7]: 90.3%
- viability, T/C [8]: 103%
- viability, T/C [9]: 104%
- viability, T/C [10]: 90.4%
- viability, T/C [11]: 90%
- viability, T/C [12]: 101%
- viability, T/C [13]: 108%
- viability, T/C [14]: 86.2%
- viability, T/C [15]: 88.3%
- viability, T/C [16]: 87.1%
- viability, T/C [17]: 100%
- viability, T/C [18]: 102%
- viability, T/C [19]: 86%
- viability, T/C [20]: 80.5%
- viability, T/C [21]: 83.3%
- viability, T/C [22]: 82.4%
- viability, T/C [23]: 89.7%
- viability, T/C [24]: 83%
- viability, T/C [25]: 79.8%
- viability, T/C [26]: 68.8%
- viability, T/C [27]: 92.3%
- viability, T/C [28]: 81%
- viability, T/C [29]: 86.1%
- viability, T/C [30]: 86.5%
- viability, T/C [31]: 77%
- viability, T/C [32]: 79.3%
- viability, T/C [33]: 75.6%
- viability, T/C [34]: 80.2%
- viability, T/C [35]: 78.2%
- viability, T/C [36]: 56.5%

- IC50 (second compound 0.0316 µM): > 10 µM
- IC50 (second compound 0.1 µM): > 10 µM
- IC50 (second compound 0.316 µM): > 10 µM
- IC50 (second compound 1 µM): > 10 µM
- IC50 (second compound 3.16 µM): > 10 µM
- IC50 (second compound 10 µM): > 10 µM
SMILES: O=c1[nH]cc(F)c(=O)[nH]1 + Cc1cnc(CNC(=O)c2c(=O)c3ccc(N4CCCN(C)CC4)nc3n3c2sc2ccccc23)cn1
- viability, T/C [1]: 108%
- viability, T/C [2]: 107%
- viability, T/C [3]: 116%
- viability, T/C [4]: 118%
- viability, T/C [5]: 87.1%
- viability, T/C [6]: 88.8%
- viability, T/C [7]: 103%
- viability, T/C [8]: 107%
- viability, T/C [9]: 112%
- viability, T/C [10]: 116%
- viability, T/C [11]: 92.1%
- viability, T/C [12]: 102%
- viability, T/C [13]: 99.2%
- viability, T/C [14]: 109%
- viability, T/C [15]: 91.5%
- viability, T/C [16]: 103%
- viability, T/C [17]: 96.4%
- viability, T/C [18]: 97.1%
- viability, T/C [19]: 84.2%
- viability, T/C [20]: 84.1%
- viability, T/C [21]: 100%
- viability, T/C [22]: 87.1%
- viability, T/C [23]: 86.2%
- viability, T/C [24]: 83%
- viability, T/C [25]: 78.2%
- viability, T/C [26]: 89.7%
- viability, T/C [27]: 90.5%
- viability, T/C [28]: 78.1%
- viability, T/C [29]: 83.8%
- viability, T/C [30]: 84.4%
- viability, T/C [31]: 81.7%
- viability, T/C [32]: 77%
- viability, T/C [33]: 74.8%
- viability, T/C [34]: 84%
- viability, T/C [35]: 77.8%
- viability, T/C [36]: 72.2%

SMILES: COc1ncnc(C2CC2)c1-c1ncc2cnn(Cc3ccc(-c4nc(C(F)(F)F)cn4C(C)C)cc3)c2n1 + CN(C)c1ccc(Nc2c3ccc(NC(=O)CCN4CCCC4)cc3nc3cc(NC(=O)CCN4CCCC4)ccc23)cc1
- IC50 (second compound 0.0316 µM): > 10 µM
- IC50 (second compound 0.1 µM): > 10 µM
- IC50 (second compound 0.316 µM): > 10 µM
- IC50 (second compound 1 µM): > 10 µM
- IC50 (second compound 3.16 µM): > 10 µM
- IC50 (second compound 10 µM): > 10 µM
- viability, T/C [1]: 96.8%
- viability, T/C [2]: 101%
- viability, T/C [3]: 85.6%
- viability, T/C [4]: 86.9%
- viability, T/C [5]: 81.4%
- viability, T/C [6]: 105%
- viability, T/C [7]: 103%
- viability, T/C [8]: 88.2%
- viability, T/C [9]: 96.9%
- viability, T/C [10]: 98%
- viability, T/C [11]: 95%
- viability, T/C [12]: 94.5%
- viability, T/C [13]: 97.6%
- viability, T/C [14]: 86.1%
- viability, T/C [15]: 82.3%
- viability, T/C [16]: 80.1%
- viability, T/C [17]: 101%
- viability, T/C [18]: 95.7%
- viability, T/C [19]: 77.5%
- viability, T/C [20]: 70.4%
- viability, T/C [21]: 81.1%
- viability, T/C [22]: 67.7%
- viability, T/C [23]: 79.3%
- viability, T/C [24]: 83.1%
- viability, T/C [25]: 79.2%
- viability, T/C [26]: 76.7%
- viability, T/C [27]: 68.8%
- viability, T/C [28]: 58%
- viability, T/C [29]: 77.4%
- viability, T/C [30]: 78.1%
- viability, T/C [31]: 61.3%
- viability, T/C [32]: 66.5%
- viability, T/C [33]: 73.5%
- viability, T/C [34]: 70.5%
- viability, T/C [35]: 63.1%
- viability, T/C [36]: 47.8%
